{
  "source": "paper PMC11054528",
  "about": "“Evaluation of Physicochemical Properties of Ipsapirone Derivatives Based on Chromatographic and Chemometric Approaches” (Molecules, 2024)",
  "key": {"[1]": {"conditions": "calibration mixture for IAM-HPLC, reference CHI value; column head printed CHI C18; cited from earlier work"}, "[2]": {"target": "T1, human serum albumin (HSA) (Homo sapiens, UniProt P02768)", "T1 sequence (P02768 25-609)": "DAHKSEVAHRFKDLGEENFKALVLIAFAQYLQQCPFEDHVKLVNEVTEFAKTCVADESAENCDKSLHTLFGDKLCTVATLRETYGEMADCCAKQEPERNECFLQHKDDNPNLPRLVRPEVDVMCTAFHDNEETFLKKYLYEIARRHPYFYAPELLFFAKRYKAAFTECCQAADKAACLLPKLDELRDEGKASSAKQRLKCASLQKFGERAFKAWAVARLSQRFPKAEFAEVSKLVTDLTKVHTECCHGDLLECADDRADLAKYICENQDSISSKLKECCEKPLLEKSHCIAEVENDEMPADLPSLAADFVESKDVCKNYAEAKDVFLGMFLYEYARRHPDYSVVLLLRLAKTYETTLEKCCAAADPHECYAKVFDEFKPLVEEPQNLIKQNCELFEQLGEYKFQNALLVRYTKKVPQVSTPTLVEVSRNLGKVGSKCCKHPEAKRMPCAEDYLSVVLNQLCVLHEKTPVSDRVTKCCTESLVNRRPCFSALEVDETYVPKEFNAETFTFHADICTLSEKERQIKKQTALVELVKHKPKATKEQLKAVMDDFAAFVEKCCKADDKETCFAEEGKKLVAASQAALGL", "conditions": "calibration mixture for HSA-HPLC, reference value; column head printed CHI C18; cited from earlier work"}, "[3]": {"conditions": "calibration mixture for C18-HPLC, reference CHI value; cited from earlier work"}, "[4]": {"target": "T1, human serum albumin (HSA)", "assay": "HSA-HPLC, biomimetic chromatography on Chiralpak HSA column", "assay_type": "in vitro ADME", "design": "purchased Daicel Chiral Technologies, West Chester, PA, USA", "conditions": "for LogKHSA: pH 7.4; for %HSA: pH 7.4, recalculated from logKHSA", "text": "Utilizing columns modified by plasma proteins, such as human serum albumin (HSA), allows for estimating binding to plasma protein (PPB). Generally, PPB affects drug pharmacokinetics, including distribution, half-life, and clearance. While lipophilicity is a well-known factor in determining PPB, it should also be considered in early drug discovery. In general, more lipophilic compounds tend to have higher percentages of PP due to nonspecific interactions with proteins. However, hydrophilic compounds can also bind strongly to PP through […] and electrostatic interactions by binding in protein pockets.\nFor HSA-HPLC experiments, the column was Chiralpak® HSA (100 × 4 mm; 5 µm with safety guard column; Daicel Chiral Technologies, West Chester, PA, USA). The column temperature was set to 30 °C. The same phase A as in the IAM-HPLC case was used, and the mobile phase B was isopropanol (i-PrOH). The linear gradient from 0 to 20% i-PrOH was applied from 0 to 15 min, held at 20% i-PrOH for 12 min, and then returned to pure ammonium acetate solution. The mobile phase flow rate was 0.9 mL/min throughout the experiment. Three minutes of column recalibration was applied between each run. The retention times were collected at wavelengths between 190 and 300 nm, and the injection volume was 10 μL."}, "[5]": {"assay": "Fast gradient RP-HPLC on C18 column (CHI lipophilicity)", "assay_type": "physicochemical", "conditions": "for CHIC18 pH = 2.6 / CHIC18 pH = 7.4 / CHIC18 pH = 10.6: C18 column; for CHI LogP: from chromatographically determined CHI on nonionized forms (pH 10.6), CHI LogP = 0.054 × CHI − 1.467", "text": "Considering the significant differences in the calculations obtained, the next step of our investigation considered the determination of lipophilicity using a chromatographic approach. Among the available protocols, the fast gradient approach developed by Valko was chosen because it enables the assessment of lipophilicity from a single chromatographic measurement. In addition, this approach enables the determination of the acid/basic properties of molecules through the addition of experiments under different pH conditions.\nTherefore, the CHI under pH10.6 can be considered and converted to chromatographically determined LogP, called CHI LogP. A cluster analysis (CA) was performed to compare chromatographically determined and calculated lipophilicity. A CA can be used for the visualization of similarities and differences between studied objects, in this case, lipophilic parameters. The obtained results clearly indicate that significant differences between theoretical and experimental data occurred, and they formed two separate groups (Figure 1). The differences are also visible on the calculated correlation matrix (Figure 2).\nFor RP-HPLC experiments, a C18 Hypersil GOLD^TM (50 mm × 4.6 mm; 5.0 µm with a guard column; Thermo Scientific, Waltham, MA, USA) column was applied. The column temperature was set to 40 °C. Three water solutions were used as mobile phase A: acetic acid at pH 2.6, […] at pH 7.4, and 50 mM ammonium acetate at pH 10.5. Mobile phase B was acetonitrile (ACN). The linear gradient from 2 to 98% ACN was applied from 0 to 5.25 min and held at 98% ACN for 1.75. The mobile phase flow rate was 1.5 mL/min throughout the experiment."}, "[6]": {"assay": "IAM-HPLC, immobilized artificial membrane chromatography (affinity to phospholipids)", "assay_type": "physicochemical", "design": "scale not given here", "conditions": "IAM.PC.DD2 column, pH 7.4", "text": "In considering that lipophilicity is a known factor influencing passive diffusion across the BBB, this is an important observation. The affinity to phospholipids can also be determined using one-gradient protocols and the IAM column. CHIIAM can be used as a cut-off point to indicate the potential for promiscuous binding and interference with phospholipids.\nThe immobilized artificial membrane column (IAM.PC.DD2, 10 × 4.6 mm × 10.0 µm with a guard column (Regis Technologies; Morton Grove, IL, USA) was used for IAM-HPLC experiments. The column temperature was set to 30 °C. Similar to RP-HPLC, mobile phase A was a 50 mM ammonium acetate at pH 7.4, and mobile phase B was acetonitrile. The linear gradient from […] ACN was applied from 0 to 5.25 min and held at 98% ACN for 0.5 min at a constant flow rate of 1.5 mL/min."}},
  "data": [
    {"smiles": "CCCCCC(=O)c1ccccc1", "note": "[Hexanophenone]", "values": [
      {"measurement": "CHI (IAM-HPLC calibration)", "setting": "[1]", "value": 41.8}
    ]},
    {"smiles": "CCCCCCC(=O)c1ccccc1", "note": "[Heptanophenone]", "values": [
      {"measurement": "CHI (IAM-HPLC calibration)", "setting": "[1]", "value": 45.7}
    ]},
    {"smiles": "CCCCC(=O)c1ccccc1", "note": "[Valerophenone]", "values": [
      {"measurement": "CHI (IAM-HPLC calibration)", "setting": "[1]", "value": 37.3}
    ]},
    {"smiles": "CNC(=C[N+](=O)[O-])NCCSCc1csc(CN(C)C)n1", "note": "[Nizatidine]", "values": [
      {"measurement": "HSA binding (HSA-HPLC calibration)", "setting": "[2]", "value": 35.0, "unit": "%"}
    ]},
    {"smiles": "CC(=O)Nc1ccccc1", "note": "[Acetanilidine]", "values": [
      {"measurement": "CHI (IAM-HPLC calibration)", "setting": "[1]", "value": 11.5}
    ]},
    {"smiles": "CC(=O)Nc1ccc(O)cc1", "note": "[Paracetamol]", "values": [
      {"measurement": "CHI (IAM-HPLC calibration)", "setting": "[1]", "value": 2.9}
    ]},
    {"smiles": "CCC(=O)c1ccccc1", "note": "[Propiophenone]", "values": [
      {"measurement": "CHI (IAM-HPLC calibration)", "setting": "[1]", "value": 25.9},
      {"measurement": "CHI C18", "setting": "[3]", "value": 77.5}
    ]},
    {"smiles": "CCCCCCCC(=O)c1ccccc1", "note": "[Octanophenone]", "values": [
      {"measurement": "CHI (IAM-HPLC calibration)", "setting": "[1]", "value": 49.4}
    ]},
    {"smiles": "COc1ccccc1N1CCN(CCCCCN2C(=O)c3ccccc3S2(=O)=O)CC1", "note": "[molecule 6]", "values": [
      {"measurement": "LogKHSA", "setting": "[4]", "value": 0.68},
      {"measurement": "%HSA", "setting": "[4]", "value": 83.59, "unit": "%"},
      {"measurement": "CHIC18 pH = 2.6", "setting": "[5]", "value": 52.94},
      {"measurement": "CHIC18 pH = 7.4", "setting": "[5]", "value": 79.45},
      {"measurement": "CHIC18 pH = 10.6", "setting": "[5]", "value": 91.77},
      {"measurement": "CHI LogP", "setting": "[5]", "value": 3.49},
      {"measurement": "CHIIAM", "setting": "[6]", "value": 38.03}
    ]},
    {"smiles": "O=C1c2ccccc2S(=O)(=O)N1CCCCCN1CCN(c2ccc(Cl)cc2)CC1", "note": "[molecule 8]", "values": [
      {"measurement": "LogKHSA", "setting": "[4]", "value": 1.53},
      {"measurement": "%HSA", "setting": "[4]", "value": 98.11, "unit": "%"},
      {"measurement": "CHIC18 pH = 2.6", "setting": "[5]", "value": 97.99},
      {"measurement": "CHIC18 pH = 7.4", "setting": "[5]", "value": 101.36},
      {"measurement": "CHIC18 pH = 10.6", "setting": "[5]", "value": 100.81},
      {"measurement": "CHI LogP", "setting": "[5]", "value": 3.98},
      {"measurement": "CHIIAM", "setting": "[6]", "value": 44.30}
    ]},
    {"smiles": "CCCC(=O)c1ccccc1", "note": "[Butyrophenone]", "values": [
      {"measurement": "CHI (IAM-HPLC calibration)", "setting": "[1]", "value": 32.0}
    ]},
    {"smiles": "CC(=O)c1ccccc1", "note": "[Acetophenone]", "values": [
      {"measurement": "CHI (IAM-HPLC calibration)", "setting": "[1]", "value": 17.2}
    ]}
  ]
}
